Publication PMC6887723, “Design and Synthesis of 4-(Heterocyclic Substituted Amino)-1H-Pyrazole-3-Carboxamide Derivatives and Their Potent Activity against Acute Myeloid Leukemia (AML)” (International Journal of Molecular Sciences, 2019)

Columns and labels:
[1] = biological target: T1, Aurora A (Homo sapiens, UniProt O14965); experiment: Hot-Spot kinase profiling; format: biochemical; details: read-out: % Enzyme Activity (Relative to DMSO Controls) Aurora A
T1 construct: purchased Reaction Biology Corp. (HotSpot kinase assay)
Description: (§1) Activities of kinases were determined using Hot-SpotSM kinase assay which was performed by Reaction Biology Corp. (Malvern PA, USA) as described previously.

[2] = biological target: T2, SYK (Homo sapiens, UniProt P43405); experiment: Hot-Spot kinase profiling; format: biochemical; details: read-out: % Enzyme Activity (Relative to DMSO Controls) SYK
T2 construct: purchased Reaction Biology Corp. (Malvern PA, USA)
Description: as §1

[3] = biological target: T3, BTK (Homo sapiens, UniProt Q06187); experiment: Hot-Spot kinase profiling; format: biochemical; details: read-out: % Enzyme Activity (Relative to DMSO Controls) BTK
T3 construct: purchased Reaction Biology Corp. (HotSpot kinase assay)
Description: as §1

[4] = biological target: T4, PDGFRa (Homo sapiens, UniProt P16234); experiment: Hot-Spot kinase profiling; format: biochemical; details: read-out: % Enzyme Activity (Relative to DMSO Controls) PDGFRa
T4 construct: purchased Reaction Biology Corp. (Malvern PA, USA)
Description: as §1

[5] = biological target: T5, ERK7/MAPK15 (Homo sapiens, UniProt Q8TD08); experiment: Hot-Spot kinase profiling; format: biochemical
T5 construct: purchased Reaction Biology Corp
Description: as §1

[6] = biological target: T6, CHK2 (Homo sapiens, UniProt O96017); experiment: Hot-Spot kinase profiling; format: biochemical; details: read-out: % Enzyme Activity (Relative to DMSO Controls) CHK2
T6 construct: purchased Reaction Biology Corp. (HotSpot kinase assay)
Description: as §1

[7] = biological target: FLT3 (ITD)-F691L (Homo sapiens, UniProt P36888, F691L/ITD); experiment: Hot-Spot kinase profiling; format: biochemical; details: Table 5 kinase profiling
Description: as §1

[8] = biological target: T7, ALK (Homo sapiens, UniProt Q9UM73); experiment: Hot-Spot kinase profiling; format: biochemical; details: read-out: % Enzyme Activity (Relative to DMSO Controls) ALK
T7 construct: purchased Reaction Biology Corp. (HotSpot kinase assay)
Description: as §1

[9] = biological target: T8, FLT3 (D835Y) (Homo sapiens, UniProt P36888, D835Y); experiment: Hot-Spot kinase profiling; format: biochemical
T8 construct: purchased Reaction Biology Corp
Description: as §1

[10] = system: RXF 393; experiment: NCI60 screening; format: cell-based; details: Homo sapiens, Renal Cancer panel
Text: (§2) With these findings, we submitted compound 8t to National Cancer Institute (NCI) to evaluate their antitumor efficacy against 60 human cancer cell lines.

[11] = system: MDA-MB-468; experiment: NCI60 screening; format: cell-based; details: Homo sapiens, Breast Cancer panel
Text: as §2

[12] = system: BT-549; experiment: NCI60 screening; format: cell-based; details: Homo sapiens, Breast Cancer panel
Text: as §2

[13] = system: M14; experiment: NCI60 screening; format: cell-based; details: Homo sapiens, Melanoma panel
Text: as §2

[14] = system: MALME-3M; experiment: NCI60 screening; format: cell-based; details: Homo sapiens, Melanoma panel
Text: as §2

[15] = system: U251; experiment: NCI60 screening; format: cell-based; details: Homo sapiens, U-251; CNS Cancer panel
Text: as §2

[16] = system: K-562; experiment: NCI60 screening; format: cell-based; details: Homo sapiens, K562; Leukemia panel
Text: as §2

[17] = system: UO-31; experiment: NCI60 screening; format: cell-based; details: Homo sapiens, Renal Cancer panel
Text: as §2

[18] = system: HL-60(TB); experiment: NCI60 screening; format: cell-based; details: Homo sapiens, Leukemia panel
Text: as §2

[19] = system: 786-0; experiment: NCI60 screening; format: cell-based; details: Homo sapiens, Renal Cancer panel
Text: as §2

[20] = system: NCI-H322M; experiment: NCI60 screening; format: cell-based; details: Homo sapiens, Non-Small Cell Lung Cancer panel
Text: as §2

[21] = system: SNB-75; experiment: NCI60 screening; format: cell-based; details: Homo sapiens, CNS Cancer panel
Text: as §2

[22] = system: SW-620; experiment: NCI60 screening; format: cell-based; details: Homo sapiens, Colon Cancer panel
Text: as §2

[23] = system: RPMI-8226; experiment: NCI60 screening; format: cell-based; details: Homo sapiens, Leukemia panel
Text: as §2

[24] = system: KM12; experiment: NCI60 screening; format: cell-based; details: Homo sapiens, Colon Cancer panel
Text: as §2

[25] = system: OVCAR-5; experiment: NCI60 screening; format: cell-based; details: Homo sapiens, Ovarian Cancer panel
Text: as §2

[26] = system: SR; experiment: NCI60 screening; format: cell-based; details: Homo sapiens, Leukemia panel
Text: as §2

[27] = system: MCF7; experiment: NCI60 screening; format: cell-based; details: Homo sapiens, Breast Cancer panel
Text: as §2

[28] = system: ACHN; experiment: NCI60 screening; format: cell-based; details: Homo sapiens, Renal Cancer panel
Text: as §2

[29] = system: NCI/ADR-RES; experiment: NCI60 screening; format: cell-based; details: Homo sapiens, Ovarian Cancer panel
Text: as §2

[30] = system: A498; experiment: NCI60 screening; format: cell-based; details: Homo sapiens, Renal Cancer panel
Text: as §2

[31] = system: CAKI-1; experiment: NCI60 screening; format: cell-based; details: Homo sapiens, Renal Cancer panel
Text: as §2

[32] = system: COLO 205; experiment: NCI60 screening; format: cell-based; details: Homo sapiens, Colon Cancer panel
Text: as §2

[33] = system: NCI-H226; experiment: NCI60 screening; format: cell-based; details: Homo sapiens, Non-Small Cell Lung Cancer panel
Text: as §2

[34] = system: CCRF-CEM; experiment: NCI60 screening; format: cell-based; details: Homo sapiens, Leukemia panel
Text: as §2

[35] = system: MDA-MB-435; experiment: NCI60 screening; format: cell-based; details: Homo sapiens, Melanoma panel
Text: as §2

[36] = system: UACC-62; experiment: NCI60 screening; format: cell-based; details: Homo sapiens, Melanoma panel
Text: as §2

[37] = system: UACC-257; experiment: NCI60 screening; format: cell-based; details: Homo sapiens, Melanoma panel
Text: as §2

[38] = system: HS 578T; experiment: NCI60 screening; format: cell-based; details: Homo sapiens, Breast Cancer panel
Text: as §2

[39] = system: SF-539; experiment: NCI60 screening; format: cell-based; details: Homo sapiens, CNS Cancer panel
Text: as §2

[40] = system: NCI-H522; experiment: NCI60 screening; format: cell-based; details: Homo sapiens, Non-Small Cell Lung Cancer panel
Text: as §2

[41] = system: MOLT-4; experiment: NCI60 screening; format: cell-based; details: Homo sapiens, Leukemia panel
Text: as §2

[42] = system: OVCAR-8; experiment: NCI60 screening; format: cell-based; details: Homo sapiens, Ovarian Cancer panel
Text: as §2

[43] = system: T-47D; experiment: NCI60 screening; format: cell-based; details: Homo sapiens, T47D; Breast Cancer panel
Text: as §2

[44] = system: HOP-92; experiment: NCI60 screening; format: cell-based; details: Homo sapiens, Non-Small Cell Lung Cancer panel
Text: as §2

T5 sequence (Q8TD08 whole entry): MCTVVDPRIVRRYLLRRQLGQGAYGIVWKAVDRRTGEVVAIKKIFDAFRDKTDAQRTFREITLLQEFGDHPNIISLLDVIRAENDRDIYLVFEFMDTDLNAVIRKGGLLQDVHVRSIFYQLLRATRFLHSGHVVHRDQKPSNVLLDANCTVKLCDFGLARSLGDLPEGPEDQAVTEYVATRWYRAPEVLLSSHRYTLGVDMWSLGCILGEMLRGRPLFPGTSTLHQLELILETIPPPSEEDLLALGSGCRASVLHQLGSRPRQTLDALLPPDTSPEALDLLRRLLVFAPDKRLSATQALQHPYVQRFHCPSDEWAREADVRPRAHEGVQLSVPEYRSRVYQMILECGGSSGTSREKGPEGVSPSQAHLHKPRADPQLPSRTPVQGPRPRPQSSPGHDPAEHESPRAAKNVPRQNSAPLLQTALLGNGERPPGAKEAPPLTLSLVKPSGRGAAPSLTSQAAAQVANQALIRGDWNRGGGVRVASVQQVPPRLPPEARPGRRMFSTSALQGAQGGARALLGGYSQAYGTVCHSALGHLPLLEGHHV
T7 sequence (Q9UM73 19-1620): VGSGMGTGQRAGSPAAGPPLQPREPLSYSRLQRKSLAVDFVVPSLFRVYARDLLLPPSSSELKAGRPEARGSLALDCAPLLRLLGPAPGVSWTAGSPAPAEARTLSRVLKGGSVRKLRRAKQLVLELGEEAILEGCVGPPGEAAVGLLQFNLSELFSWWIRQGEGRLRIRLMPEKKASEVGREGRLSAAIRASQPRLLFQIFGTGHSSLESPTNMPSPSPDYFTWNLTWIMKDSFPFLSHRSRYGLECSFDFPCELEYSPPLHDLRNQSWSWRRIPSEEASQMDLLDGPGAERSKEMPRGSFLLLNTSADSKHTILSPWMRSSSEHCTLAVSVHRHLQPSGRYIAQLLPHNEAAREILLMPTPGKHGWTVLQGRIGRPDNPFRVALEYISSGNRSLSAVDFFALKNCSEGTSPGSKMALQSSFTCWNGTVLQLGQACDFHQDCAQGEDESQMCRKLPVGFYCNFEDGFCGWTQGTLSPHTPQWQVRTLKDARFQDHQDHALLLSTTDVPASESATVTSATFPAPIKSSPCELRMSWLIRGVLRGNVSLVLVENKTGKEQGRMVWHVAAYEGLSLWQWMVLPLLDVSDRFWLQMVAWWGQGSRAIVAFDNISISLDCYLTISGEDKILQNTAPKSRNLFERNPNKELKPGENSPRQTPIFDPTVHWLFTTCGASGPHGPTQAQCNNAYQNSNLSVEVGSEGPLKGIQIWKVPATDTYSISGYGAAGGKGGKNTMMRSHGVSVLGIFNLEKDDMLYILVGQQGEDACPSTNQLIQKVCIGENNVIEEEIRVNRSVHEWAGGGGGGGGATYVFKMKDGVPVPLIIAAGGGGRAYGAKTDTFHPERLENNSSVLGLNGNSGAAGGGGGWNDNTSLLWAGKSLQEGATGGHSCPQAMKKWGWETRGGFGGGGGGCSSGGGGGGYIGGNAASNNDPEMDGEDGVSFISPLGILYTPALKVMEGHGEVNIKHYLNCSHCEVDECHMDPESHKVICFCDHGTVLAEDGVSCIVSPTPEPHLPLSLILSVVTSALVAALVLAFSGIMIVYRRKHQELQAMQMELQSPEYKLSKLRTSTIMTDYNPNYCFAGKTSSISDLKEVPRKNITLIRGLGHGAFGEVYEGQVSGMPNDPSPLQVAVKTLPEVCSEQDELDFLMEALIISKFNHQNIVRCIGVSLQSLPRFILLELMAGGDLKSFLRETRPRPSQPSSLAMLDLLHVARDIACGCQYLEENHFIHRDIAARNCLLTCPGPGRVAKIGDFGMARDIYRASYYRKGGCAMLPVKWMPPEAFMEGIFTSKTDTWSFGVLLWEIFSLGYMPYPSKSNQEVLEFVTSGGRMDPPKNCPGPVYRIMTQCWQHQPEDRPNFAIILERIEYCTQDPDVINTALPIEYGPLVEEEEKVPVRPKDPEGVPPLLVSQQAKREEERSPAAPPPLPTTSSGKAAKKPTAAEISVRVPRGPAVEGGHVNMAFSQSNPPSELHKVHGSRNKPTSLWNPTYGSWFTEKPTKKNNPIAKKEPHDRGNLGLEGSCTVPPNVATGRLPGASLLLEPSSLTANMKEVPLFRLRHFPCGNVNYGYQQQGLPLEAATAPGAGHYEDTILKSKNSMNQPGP
T3 sequence (Q06187 whole entry): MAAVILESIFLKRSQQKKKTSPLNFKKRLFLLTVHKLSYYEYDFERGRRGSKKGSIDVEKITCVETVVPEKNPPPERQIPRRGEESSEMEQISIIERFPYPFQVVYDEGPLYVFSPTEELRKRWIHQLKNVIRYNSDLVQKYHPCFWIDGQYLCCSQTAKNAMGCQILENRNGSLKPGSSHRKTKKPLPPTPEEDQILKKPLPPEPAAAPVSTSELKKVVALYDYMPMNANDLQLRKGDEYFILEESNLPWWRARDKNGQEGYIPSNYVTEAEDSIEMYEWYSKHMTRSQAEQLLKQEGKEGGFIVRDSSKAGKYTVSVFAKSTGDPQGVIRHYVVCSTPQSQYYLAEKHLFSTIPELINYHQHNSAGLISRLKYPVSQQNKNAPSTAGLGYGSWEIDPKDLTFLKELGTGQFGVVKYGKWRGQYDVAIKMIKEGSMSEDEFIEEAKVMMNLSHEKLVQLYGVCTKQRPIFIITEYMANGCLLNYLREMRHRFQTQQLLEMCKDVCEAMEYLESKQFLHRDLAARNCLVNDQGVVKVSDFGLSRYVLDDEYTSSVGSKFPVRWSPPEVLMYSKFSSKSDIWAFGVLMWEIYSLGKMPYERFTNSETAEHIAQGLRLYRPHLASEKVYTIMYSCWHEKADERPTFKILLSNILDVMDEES
T4 sequence (P16234 24-1089): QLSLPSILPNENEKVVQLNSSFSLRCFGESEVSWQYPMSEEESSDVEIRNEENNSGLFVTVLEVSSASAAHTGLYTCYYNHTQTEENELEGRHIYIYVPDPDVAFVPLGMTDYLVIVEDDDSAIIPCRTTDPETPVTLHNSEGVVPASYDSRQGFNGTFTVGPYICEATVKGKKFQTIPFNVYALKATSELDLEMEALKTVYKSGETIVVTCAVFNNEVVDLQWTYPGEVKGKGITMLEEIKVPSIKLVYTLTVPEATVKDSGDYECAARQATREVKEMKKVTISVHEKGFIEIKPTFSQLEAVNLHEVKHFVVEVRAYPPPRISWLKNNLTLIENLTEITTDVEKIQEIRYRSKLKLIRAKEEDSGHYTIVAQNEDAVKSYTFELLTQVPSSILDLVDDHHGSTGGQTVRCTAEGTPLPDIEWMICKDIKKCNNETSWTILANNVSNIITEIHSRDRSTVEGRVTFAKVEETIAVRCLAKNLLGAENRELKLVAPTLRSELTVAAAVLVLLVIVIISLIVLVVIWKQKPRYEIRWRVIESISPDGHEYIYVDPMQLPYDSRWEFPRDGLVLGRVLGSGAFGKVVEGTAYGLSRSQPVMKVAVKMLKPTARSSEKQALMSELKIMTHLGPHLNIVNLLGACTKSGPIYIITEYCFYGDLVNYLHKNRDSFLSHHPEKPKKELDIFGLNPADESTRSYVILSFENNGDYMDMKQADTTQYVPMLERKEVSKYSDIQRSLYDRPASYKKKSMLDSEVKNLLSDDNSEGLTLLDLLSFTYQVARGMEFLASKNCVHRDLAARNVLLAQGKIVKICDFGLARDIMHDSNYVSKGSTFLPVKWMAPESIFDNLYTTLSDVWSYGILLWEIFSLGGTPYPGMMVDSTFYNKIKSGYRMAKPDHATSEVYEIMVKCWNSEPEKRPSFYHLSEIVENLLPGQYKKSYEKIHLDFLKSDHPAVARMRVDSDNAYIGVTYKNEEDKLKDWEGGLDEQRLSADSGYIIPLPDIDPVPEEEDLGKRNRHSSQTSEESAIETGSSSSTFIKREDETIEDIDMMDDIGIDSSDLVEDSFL
T6 sequence (O96017 whole entry): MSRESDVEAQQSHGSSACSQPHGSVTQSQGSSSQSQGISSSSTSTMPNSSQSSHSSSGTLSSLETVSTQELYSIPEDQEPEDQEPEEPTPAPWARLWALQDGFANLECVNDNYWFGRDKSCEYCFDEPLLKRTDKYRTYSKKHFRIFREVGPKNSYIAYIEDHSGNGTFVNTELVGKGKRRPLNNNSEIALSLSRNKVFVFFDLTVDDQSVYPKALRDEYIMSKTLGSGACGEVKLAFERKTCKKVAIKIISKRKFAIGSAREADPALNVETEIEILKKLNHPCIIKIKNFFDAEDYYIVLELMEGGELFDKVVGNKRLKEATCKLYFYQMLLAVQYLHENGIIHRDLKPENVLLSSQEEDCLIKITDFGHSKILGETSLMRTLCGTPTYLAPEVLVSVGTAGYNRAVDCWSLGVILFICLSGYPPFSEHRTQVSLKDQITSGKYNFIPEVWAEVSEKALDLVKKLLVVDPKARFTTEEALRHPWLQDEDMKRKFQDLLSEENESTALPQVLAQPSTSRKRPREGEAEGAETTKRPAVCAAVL
T1 sequence (O14965 whole entry): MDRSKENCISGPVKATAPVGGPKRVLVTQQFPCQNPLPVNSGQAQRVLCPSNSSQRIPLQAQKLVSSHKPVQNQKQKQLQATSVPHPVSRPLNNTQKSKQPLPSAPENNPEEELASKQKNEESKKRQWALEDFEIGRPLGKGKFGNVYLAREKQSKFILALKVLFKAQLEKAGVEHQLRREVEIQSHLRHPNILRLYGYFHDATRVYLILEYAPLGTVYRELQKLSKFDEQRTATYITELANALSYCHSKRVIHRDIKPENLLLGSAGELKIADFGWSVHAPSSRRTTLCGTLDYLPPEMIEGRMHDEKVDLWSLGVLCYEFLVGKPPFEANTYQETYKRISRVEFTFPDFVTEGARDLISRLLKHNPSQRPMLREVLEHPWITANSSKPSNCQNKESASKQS

`O=C(Nc1ccc(N2CCNCC2)cc1)c1n[nH]cc1Nc1ncnc2sc3c(c12)CCC3` [Compound 8t] was tested. Which remaining activity at 0.15 µM [1] did it give?
Its remaining activity at 0.15 µM is 38%.

What about the remaining activity at 0.15 µM [2] of the same molecule?
The remaining activity at 0.15 µM was 35.4%.

What about the remaining activity at 0.15 µM [3] of the same molecule?
The remaining activity at 0.15 µM was 97.1%.

And the remaining activity at 0.15 µM [4]?
Its remaining activity at 0.15 µM is 82.8%.

What about the remaining activity at 0.15 µM ([5]; 0.15 μM, read-out: % Enzyme Activity (Relative to DMSO Controls) ERK7/MAPK15) of the same molecule?
Its remaining activity at 0.15 µM is 2.96%.

What about the IC50 ([5]; Table 5 kinase profiling) of the same molecule?
The IC50 was 9.57 ± 0.23 nM.

And the remaining activity at 0.15 µM [6]?
Its remaining activity at 0.15 µM is 38.4%.

And the IC50 [7]?
The IC50 was 0.6 ± 0.01 nM.

What about the remaining activity at 0.15 µM [8] of the same molecule?
The remaining activity at 0.15 µM was 16.6%.

What about the remaining activity at 0.15 µM ([9]; 0.15 μM, read-out: % Enzyme Activity (Relative to DMSO Controls) FLT3 (D835Y)) of the same molecule?
Its remaining activity at 0.15 µM is 0.27%.

What about the IC50 ([9]; Table 5 kinase profiling) of the same molecule?
Its IC50 is 0.75 ± 0.04 nM.

What about the GI50 [10] of the same molecule?
The GI50 was 390 nM.

What about the GI50 [11] of the same molecule?
The GI50 was 420 nM.

And the GI50 [12]?
Its GI50 is 1020 nM.

And the GI50 [13]?
Its GI50 is 120 nM.

What about the GI50 [14] of the same molecule?
Its GI50 is 240 nM.

What about the GI50 [15] of the same molecule?
The GI50 was 110 nM.

What about the GI50 [16] of the same molecule?
Its GI50 is 120 nM.

What about the GI50 [17] of the same molecule?
Its GI50 is 400 nM.

What about the GI50 [18] of the same molecule?
The GI50 was 1150 nM.

What about the GI50 [19] of the same molecule?
Its GI50 is 360 nM.

What about the GI50 [20] of the same molecule?
The GI50 was 140 nM.

What about the GI50 [21] of the same molecule?
The GI50 was 50 nM.

And the GI50 [22]?
The GI50 was 120 nM.

And the GI50 [23]?
Its GI50 is 890 nM.

What about the GI50 [24] of the same molecule?
The GI50 was 170 nM.

And the GI50 [25]?
Its GI50 is 270 nM.

And the GI50 [26]?
Its GI50 is 60 nM.

What about the GI50 [27] of the same molecule?
Its GI50 is 160 nM.

What about the GI50 [28] of the same molecule?
Its GI50 is 160 nM.

What about the GI50 [29] of the same molecule?
Its GI50 is 1480 nM.

What about the GI50 [30] of the same molecule?
Its GI50 is 140 nM.

And the GI50 [31]?
The GI50 was 80 nM.

What about the GI50 [32] of the same molecule?
Its GI50 is 120 nM.

What about the GI50 [33] of the same molecule?
Its GI50 is 320 nM.

What about the GI50 [34] of the same molecule?
The GI50 was 220 nM.

And the GI50 [35]?
Its GI50 is 110 nM.

And the GI50 [36]?
Its GI50 is 1090 nM.

What about the GI50 [37] of the same molecule?
Its GI50 is 480 nM.

And the GI50 [38]?
Its GI50 is 100 nM.

And the GI50 [39]?
The GI50 was 390 nM.

And the GI50 [40]?
Its GI50 is 210 nM.

And the GI50 [41]?
The GI50 was 80 nM.

And the GI50 [42]?
Its GI50 is 360 nM.

And the GI50 [43]?
The GI50 was 590 nM.

What about the GI50 [44] of the same molecule?
Its GI50 is 40 nM.
